Experimental data published in patent US12077503B2, “Substituted cyclic amides and their use as herbicides” (FMC CORPORATION, priority 2015, dated 2024).

Columns and labels:
Assay type in all cases: in vivo
[1] = system: Kochia (Kochia scoparia); assay: Test A preemergence
How it was run: (§1)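 Greenhouse, ~10 d after spray; visual injury vs untreated controls, 0 = no effect, 100 = complete control. Preemergence: directed soil spray over planted seeds. Postemergence: plants 2–10 cm, 1–2 leaf stage. Loam/sand blend. Compound in non-phytotoxic solvent with surfactant.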

[2] = system: barnyardgrass (Echinochloa crus-galli); assay: Test A preemergence
How it was run: as §1

[3] = system: giant foxtail (Setaria faberii); assay: Test A preemergence
How it was run: as §1

[4] = system: pigweed (Amaranthus retroflexus); assay: Test A preemergence; details: preemergence
[5] = system: ragweed (common ragweed, Ambrosia elatior); assay: Test A preemergence; details: preemergence
How it was run: as §1

[6] = system: ryegrass, Italian (Italian ryegrass, Lolium multiflorum); assay: Test A preemergence; details: preemergence
How it was run: as §1

[7] = system: Galium (catchweed bedstraw, Galium aparine); assay: Test A postemergence; details: postemergence, 0 to 100 scale (0 no effect, 100 complete control)
How it was run: as §1

[8] = system: Kochia (Kochia scoparia); assay: Test A postemergence; details: postemergence, 0 to 100 scale (0 no effect, 100 complete control)
How it was run: as §1

[9] = system: barnyardgrass (Echinochloa crus-galli); assay: Test A postemergence; details: postemergence, 0 to 100 scale (0 no effect, 100 complete control)
How it was run: as §1

[10] = system: blackgrass (Alopecurus myosuroides); assay: Test A postemergence; details: postemergence, 0 to 100 scale (0 no effect, 100 complete control)
How it was run: as §1

[11] = system: corn (Zea mays); assay: Test A postemergence; details: postemergence, 0 to 100 scale (0 no effect, 100 complete control)
How it was run: as §1

[12] = system: giant foxtail (Setaria faberii); assay: Test A postemergence; details: postemergence, 0 to 100 scale (0 no effect, 100 complete control)
How it was run: as §1

[13] = system: pigweed (Amaranthus retroflexus); assay: Test A postemergence; details: postemergence, 0 to 100 scale (0 no effect, 100 complete control)
How it was run: as §1

[14] = system: ragweed (common ragweed, Ambrosia elatior); assay: Test A postemergence; details: postemergence, 0 to 100 scale (0 no effect, 100 complete control)
How it was run: as §1

[15] = system: ryegrass, Italian (Italian ryegrass, Lolium multiflorum); assay: Test A postemergence; details: postemergence, 0 to 100 scale (0 no effect, 100 complete control)
How it was run: as §1

[16] = system: wheat (Triticum aestivum); assay: Test A postemergence; details: postemergence, 0 to 100 scale (0 no effect, 100 complete control)
How it was run: as §1

[17] = system: barnyardgrass (Echinochloa crus-galli); assay: Test B flooded paddy test; details: Flood, 500 g ai/ha; 0 to 100 scale where 0 is no effect and 100 is complete control; 13 to 15 d
How it was run: (§2)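 Plants at 2-leaf stage flooded to 3 cm above soil, with compounds applied directly to paddy water and that depth maintained. Plants kept in greenhouse 13–15 d. Visual rating versus controls on a 0 (no effect) to 100 (complete control) scale.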

[18] = system: ducksalad (Heteranthera limosa); assay: Test B flooded paddy test; details: Flood, 500 g ai/ha; 0 to 100 scale where 0 is no effect and 100 is complete control; 13 to 15 d
How it was run: as §2

[19] = system: rice (Oryra sativa); assay: Test B flooded paddy test; details: Flood, 500 g ai/ha; 0 to 100 scale where 0 is no effect and 100 is complete control; 13 to 15 d
How it was run: as §2

[20] = system: sedge, umbrella (small-flower umbrella sedge, Cyperus difformis); assay: Test B flooded paddy test; details: Flood, 500 g ai/ha; 0 to 100 scale where 0 is no effect and 100 is complete control; 13 to 15 d
How it was run: as §2

[21] = system: pigweed (Amaranthus retroflexus); assay: Test C preemergence; details: for Plant response rating, Pigweed: scale 0 to 100, 0 no effect, 100 complete control
Description: Seeds of plant species selected from blackgrass (Alopecurus myosuroides), ryegrass, Italian (Italian ryegrass, Lolium multiflorum), wheat (winter wheat, Triticum aestivum), Galium (catchweed bedstraw, Galium aparine), corn (Zea mays), crabgrass, large (large crabgrass, Digitaria sanguinalis), foxtail, giant (giant foxtail, Setaria faberii), johnsongrass (Sorghum halepense), lambsquarters (Chenopodium album), morningglory (Ipomoea coccinea), nutsedge, yellow (yellow nutsedge, Cyperus esculentus), pigweed (Amaranthus retroflexus), ragweed (common ragweed, Ambrosia elatior), soybean (Glycine max), barnyardgrass (Echinochloa crus-galli), oilseed rape (Brassica napus), waterhemp (common waterhemp, Amaranthus rudis) and velvetleaf (Abutilon theophrasti) were planted into a blend of loam soil and sand and treated preemergence with test chemicals formulated in a non-phytotoxic solvent mixture which included a surfactant.
At the same time, plants selected from these crop and weed species and also Kochia (Kochia scoparia), oat, wild (wild oat, Avena fatua), and chickweed (common chickweed, Stellaria media) were planted in pots containing Sunshine Redi-Earth® planting medium comprising spaghnum peat moss, vermiculite, starter nutrients and dolomitic limestone and treated with postemergence applications of test chemicals formulated in the same manner. Plants ranged in height from 2 to 18 cm (1- to 4-leaf stage) for postemergence treatments. Treated plants and controls were maintained in a greenhouse for 13 to 15 d, after which time all species were compared to controls and visually evaluated. Plant response ratings, summarized in Table C, are based on a scale of 0 to 100 where 0 is no effect and 100 is complete control. A dash (-) response means no test result.

[22] = 125 g ai/ha, Preemergence, visual injury after approximately 10 d, 0 to 100 scale where 0 is no effect and 100 is complete control
[23] = 500 g ai/ha, preemergence, 0 to 100 scale, 0 = no effect, 100 = complete control
[24] = 125 g ai/ha, visual rating after approx. 10 d, 0 to 100 scale where 0 is no effect and 100 is complete control
[25] = 500 g ai/ha, 0 to 100 scale, 0 = no effect, 100 = complete control
[26] = 125 g ai/ha, visual injury after approximately 10 d
[27] = 500 g ai/ha, visual injury, approx. 10 d
[28] = 125 g ai/ha, visual rating after approx. 10 d

`O=C1NCC(c2cccc(OC(F)(F)C(F)F)c2)C1C(=O)Nc1ccccc1F` (racemic) [Compound 695] was tested, and the “Plant response rating, Kochia” value [1, 22] was 30, the “Plant response rating, Kochia” value [1, 23] was 90 and the “Plant response rating, Barnyardgrass” value [2, 22] was 90. For the same compound, the “Plant response rating, Barnyardgrass” value [2, 23] was 90, the “Plant response rating, Foxtail, Giant” value [3, 22] was 90 and the “Plant response rating, Foxtail, Giant” value [3, 23] was 90. The “Plant response rating, Pigweed” value [4, 24] was 30, the “Plant response rating, Pigweed” value [4, 25] was 40 and the “Plant response rating, Ragweed” value [5, 24] was 20. For the same compound, the “Plant response rating, Ragweed” value [5, 25] was 40, the “Plant response rating, Ryegrass, Italian” value [6, 24] was 40 and the “Plant response rating, Ryegrass, Italian” value [6, 25] was 30. For the same compound, the “Plant response rating, Galium” value [7, 26] was 50, the “Plant response rating, Galium” value [7, 27] was 40 and the “Plant response rating, Kochia” value [8, 26] was 30. For the same compound, the “Plant response rating, Kochia” value [8, 27] was 50, the “Plant response rating, Barnyardgrass” value [9, 28] was 80 and the “Plant response rating, Barnyardgrass” value [9, 27] was 90. For the same compound, the “Plant response rating, Blackgrass” value [10, 28] was 0, the “Plant response rating, Blackgrass” value [10, 27] was 40 and the “Plant response rating, Corn” value [11, 26] was 80. For the same compound, the “Plant response rating, Corn” value [11, 27] was 80, the “Plant response rating, Foxtail, Giant” value [12, 26] was 80 and the “Plant response rating, Foxtail, Giant” value [12, 27] was 80. The “Plant response rating, Pigweed” value [13, 26] was 20, the “Plant response rating, Pigweed” value [13, 27] was 30 and the “Plant response rating, Ragweed” value [14, 26] was 20. For the same compound, the “Plant response rating, Ragweed” value [14, 27] was 40, the “Plant response rating, Ryegrass, Italian” value [15, 26] was 0 and the “Plant response rating, Ryegrass, Italian” value [15, 27] was 20. For the same compound, the “Plant response rating, Wheat” value [16, 26] was 20, the “Plant response rating, Wheat” value [16, 27] was 40 and the “Plant response rating, Barnyardgrass” value [17] was 80. For the same compound, the “Plant response rating, Ducksalad” value [18] was 100, the “Plant response rating, Rice” value [19] was 0 and the “Plant response rating, Sedge, Umbrella” value [20] was 0. The “Plant response rating (scale of 0 to 100), Pigweed” value ([21]; 31 g ai/ha, 0 is no effect, 100 is complete control) was 50, the “Plant response rating, Pigweed” value ([21]; 62 g ai/ha) was 60 and the “Plant response rating, Pigweed” value ([21]; 125 g ai/ha) was 65. The “Plant response rating, Pigweed” value ([21]; 250 g ai/ha) was 70.
